How the values were obtained:
Format in all cases: physicochemical
[1] = Single-stage extraction: partitioning of dicofol technical between n-heptane and 90% aqueous methanol
Protocol: A 50g sample of the desired dicofol solution was taken in a stoppered 100 ml graduated cylinder. […] They were then shaken well for two minutes. The samples were placed in an ice-water bath for 30 minutes. After the cooling period all samples were again shaken for 2 minutes. The samples were returned to the bath and allowed to equilibrate for 30 minutes. The samples were then removed from the bath and volumes recorded (Table I - Columns 2 and 3). The layers were then separated and each layer weighed (Columns 4 and 5). The separated layers were concentrated under vacuum (70°C, 1 mm Hg), weighed (columns 6 and 7) and analyzed (Table II).
In subsequent experiments, the partitioning of dicofol technical between n-heptane and 90% aqueous methanol was also evaluated at 23°C. The combined results from the 0°C and 23°C experiments are presented in Table IV where the results are expressed as distribution coefficients for dicofol and the two principal DDTr's found in dicofol technical, o,p'-DDE and p,p'-Cl-DDT. In all cases, the extractability of DDTr's exceeded that of dicofol by a significant margin.

[2] = Single-stage extraction: dicofol technical in aqueous methanols of various water content contacted with n-heptane; conditions: 50g of 33% solution of dicofol technical, 40 g n-heptane, 23°C
Protocol: The effect on distribution coefficients and selectivities of the amount of water in the methanol was determined. […] All distribution coefficients rise as the percentage of water increases. The selectivities rise initially but then begin to decrease at water levels higher than a maximum range. Importantly, if the water in the methanol is omitted, the addition of practical concentrations of dicofol technical causes the phases to coalesce.

[3] = Single-stage extraction: dicofol technical in aqueous ethanol of various concentrations partitioned with heptane; conditions: 30% dicofol technical solution, 50 grams, 40 grams heptane, 23°C
Protocol: Alternative solvent systems were evaluated. The distribution coefficients were determined by partitioning dicofol technical.
In Table VII, n-heptane was used as the extractant and different raffinate phase solvents were evaluated. In Table VIII, ethanol was used as the raffinate solvent and different extracting solvents were evaluated. In Table IX, n-heptane was used as the extractant and ethanol at different aqueous concentrations was used as the raffinate solvent. In the experiments set forth in Table IX, 30% dicofol technical solution (in the raffinate layer) was used and 50 grams of this solution was partitioned with 40 grams of the extracting solvent. In Table X, methanol was used as the raffinate solvent and different extracting solvents were evaluated. And in Table XI, using n-heptane as the extracting solvent and aqueous methanol as the raffinate solvent, the partition coefficients were determined as a function of temperature and concentration of dicofol.

[4] = dicofol technical spiked with 0.25 Wt % p,p'-DDD and separately p,p'-DDT, 50g of 33% solution in 90% aqueous methanol, 40g n-heptane, 23°C
[5] = dicofol technical spiked with 0.72 Wt % p,p'-DDD and separately p,p'-DDT, 50g of 33% solution in 90% aqueous methanol, 40g n-heptane, 23°C
[6] = dicofol technical spiked with 1.80 Wt % p,p'-DDD and separately p,p'-DDT, 50g of 33% solution in 90% aqueous methanol, 40g n-heptane, 23°C
[7] = heptane layer / raffinate layer, 50 g of dicofol solution conc. 8.4 in 90% aqueous methanol, 20 g heptane, 0 °C
[8] = heptane layer / raffinate layer, 50 g of dicofol solution conc. 10 in 90% aqueous methanol, 40 g heptane, 23 °C
[9] = heptane layer / raffinate layer, 50 g of dicofol solution conc. 16.7 in 90% aqueous methanol, 20 g heptane, 0 °C
[10] = heptane layer / raffinate layer, 50 g of dicofol solution conc. 16.7 in 90% aqueous methanol, 20 g heptane, 23 °C
[11] = heptane layer / raffinate layer, 50 g of dicofol solution conc. 20 in 90% aqueous methanol, 40 g heptane, 23 °C
[12] = heptane layer / raffinate layer, 50 g of dicofol solution conc. 30 in 90% aqueous methanol, 40 g heptane, 23 °C
[13] = heptane layer / raffinate layer, 50 g of dicofol solution conc. 33 in 90% aqueous methanol, 20 g heptane, 0 °C
[14] = heptane layer / raffinate layer, 50 g of dicofol solution conc. 40 in 90% aqueous methanol, 40 g heptane, 23 °C
[15] = heptane layer / raffinate layer, 50 g of dicofol solution conc. 50 in 90% aqueous methanol, 20 g heptane, 0 °C
[16] = heptane layer / raffinate layer, 50 g of dicofol solution conc. 50 in 90% aqueous methanol, 40 g heptane, 23 °C
[17] = ratio of DDTr D.C. to that of dicofol, dicofol solution conc. 8.4 in 90% aqueous methanol, 20 g heptane, 0 °C
[18] = ratio of DDTr D.C. to that of dicofol, dicofol solution conc. 10 in 90% aqueous methanol, 40 g heptane, 23 °C
[19] = ratio of DDTr D.C. to that of dicofol, dicofol solution conc. 16.7 in 90% aqueous methanol, 20 g heptane, 0 °C
[20] = ratio of DDTr D.C. to that of dicofol, dicofol solution conc. 16.7 in 90% aqueous methanol, 20 g heptane, 23 °C
[21] = ratio of DDTr D.C. to that of dicofol, dicofol solution conc. 20 in 90% aqueous methanol, 40 g heptane, 23 °C
[22] = ratio of DDTr D.C. to that of dicofol, dicofol solution conc. 30 in 90% aqueous methanol, 40 g heptane, 23 °C
[23] = ratio of DDTr D.C. to that of dicofol, dicofol solution conc. 33 in 90% aqueous methanol, 20 g heptane, 0 °C
[24] = ratio of DDTr D.C. to that of dicofol, dicofol solution conc. 40 in 90% aqueous methanol, 40 g heptane, 23 °C
[25] = ratio of DDTr D.C. to that of dicofol, dicofol solution conc. 50 in 90% aqueous methanol, 20 g heptane, 0 °C
[26] = ratio of DDTr D.C. to that of dicofol, dicofol solution conc. 50 in 90% aqueous methanol, 40 g heptane, 23 °C

Clc1ccc(C(c2ccc(Cl)cc2)C(Cl)(Cl)Cl)cc1 [p,p'-DDT, 1,1-bis-(4-chlorophenyl)-2,2,2-trichloroethane]
Distribution coefficient (D.C.) [1, 4]: 1.9 | Selectivity (Sel.) [1, 4]: 5.9 | Distribution coefficient (D.C.) [1, 5]: 1.9 | Selectivity (Sel.) [1, 5]: 5.6 | Distribution coefficient (D.C.) [1, 6]: 2.1 | Selectivity (Sel.) [1, 6]: 6.0

Clc1ccc(C(Cl)(c2ccc(Cl)cc2)C(Cl)(Cl)Cl)cc1 [p,p'-Cl-DDT, 1,1-bis-(4-chlorophenyl)-1,2,2,2-tetrachloroethane]
Distribution coefficient (D.C.) [1, 4]: 3.7 | Selectivity (Sel.) [1, 4]: 11.8 | Distribution coefficient (D.C.) [1, 5]: 3.8 | Selectivity (Sel.) [1, 5]: 11.4 | Distribution coefficient (D.C.) [1, 6]: 3.8 | Selectivity (Sel.) [1, 6]: 10.8 | Distribution coefficient (D.C.) [1, 7]: 9.1 | Distribution coefficient (D.C.) [1, 8]: 7.5 | Distribution coefficient (D.C.) [1, 9]: 4.4 | Distribution coefficient (D.C.) [1, 10]: 4.1 | Distribution coefficient (D.C.) [1, 11]: 5.3 | Distribution coefficient (D.C.) [1, 12]: 4.0 | Distribution coefficient (D.C.) [1, 13]: 2.6 | Distribution coefficient (D.C.) [1, 14]: 2.8 | Distribution coefficient (D.C.) [1, 15]: 1.5 | Distribution coefficient (D.C.) [1, 16]: 2.1 | Selectivity (Sel.) [1, 17]: 23.3 | Selectivity (Sel.) [1, 18]: 23.4 | Selectivity (Sel.) [1, 19]: 22.4 | Selectivity (Sel.) [1, 20]: 12.2 | Selectivity (Sel.) [1, 21]: 16.8 | Selectivity (Sel.) [1, 22]: 13.1 | Selectivity (Sel.) [1, 23]: 14.9 | Selectivity (Sel.) [1, 24]: 8.6 | Selectivity (Sel.) [1, 25]: 9.4 | Selectivity (Sel.) [1, 26]: 6.8 | Distribution coefficient (D.C.) ([2]; 4 % H₂O in Aq. MeOH): 1.9 | Selectivity (Sel.) ([2]; 4 % H₂O in Aq. MeOH): 7.0 | Distribution coefficient (D.C.) ([2]; 8 % H₂O in Aq. MeOH): 2.9 | Selectivity (Sel.) ([2]; 8 % H₂O in Aq. MeOH): 10.1 | Distribution coefficient (D.C.) ([2]; 12 % H₂O in Aq. MeOH): 4.6 | Selectivity (Sel.) ([2]; 12 % H₂O in Aq. MeOH): 12.2 | Distribution coefficient (D.C.) ([2]; 16 % H₂O in Aq. MeOH): 6.8 | Selectivity (Sel.) ([2]; 16 % H₂O in Aq. MeOH): 11.4 | Distribution coefficient (D.C.) ([3]; 85% aqueous ethanol): 1.65 | Selectivity (Sel.) ([3]; 85% aqueous ethanol): 2.22 | Distribution coefficient (D.C.) ([3]; 87% aqueous ethanol): 1.48 | Selectivity (Sel.) ([3]; 87% aqueous ethanol): 2.33 | Distribution coefficient (D.C.) ([3]; 90% aqueous ethanol): 0.91 | Selectivity (Sel.) ([3]; 90% aqueous ethanol): 1.20

Clc1ccc(C(c2ccc(Cl)cc2)C(Cl)Cl)cc1 [p,p'-DDD, 1,1-bis-(4-chlorophenyl)-2,2-dichloroethane]
Distribution coefficient (D.C.) [1, 4]: 0.66 | Selectivity (Sel.) [1, 4]: 2.1 | Distribution coefficient (D.C.) [1, 5]: 0.71 | Selectivity (Sel.) [1, 5]: 2.1 | Distribution coefficient (D.C.) [1, 6]: 0.79 | Selectivity (Sel.) [1, 6]: 2.2

ClC(Cl)=C(c1ccc(Cl)cc1)c1ccccc1Cl [o,p'-DDE]
Distribution coefficient (D.C.) [1, 4]: 2.4 | Selectivity (Sel.) [1, 4]: 7.6 | Distribution coefficient (D.C.) [1, 5]: 2.4 | Selectivity (Sel.) [1, 5]: 7.2 | Distribution coefficient (D.C.) [1, 6]: 2.4 | Selectivity (Sel.) [1, 6]: 6.8 | Distribution coefficient (D.C.) [1, 7]: 3.6 | Distribution coefficient (D.C.) [1, 8]: 3.9 | Distribution coefficient (D.C.) [1, 9]: 3.2 | Distribution coefficient (D.C.) [1, 10]: 3.4 | Distribution coefficient (D.C.) [1, 11]: 3.5 | Distribution coefficient (D.C.) [1, 12]: 2.4 | Distribution coefficient (D.C.) [1, 13]: 1.8 | Distribution coefficient (D.C.) [1, 14]: 2.32 | Distribution coefficient (D.C.) [1, 15]: 1.3 | Distribution coefficient (D.C.) [1, 16]: 1.66 | Selectivity (Sel.) [1, 17]: 17.3 | Selectivity (Sel.) [1, 18]: 12.2 | Selectivity (Sel.) [1, 19]: 16.1 | Selectivity (Sel.) [1, 20]: 10.1 | Selectivity (Sel.) [1, 21]: 11.0 | Selectivity (Sel.) [1, 22]: 7.9 | Selectivity (Sel.) [1, 23]: 10.5 | Selectivity (Sel.) [1, 24]: 7.2 | Selectivity (Sel.) [1, 25]: 7.9 | Selectivity (Sel.) [1, 26]: 5.3 | Distribution coefficient (D.C.) ([2]; 4 % H₂O in Aq. MeOH): 1.5 | Selectivity (Sel.) ([2]; 4 % H₂O in Aq. MeOH): 5.7 | Distribution coefficient (D.C.) ([2]; 8 % H₂O in Aq. MeOH): 2.2 | Selectivity (Sel.) ([2]; 8 % H₂O in Aq. MeOH): 7.7 | Distribution coefficient (D.C.) ([2]; 12 % H₂O in Aq. MeOH): 3.1 | Selectivity (Sel.) ([2]; 12 % H₂O in Aq. MeOH): 8.3 | Distribution coefficient (D.C.) ([2]; 16 % H₂O in Aq. MeOH): 3.6 | Selectivity (Sel.) ([2]; 16 % H₂O in Aq. MeOH): 6.1 | Distribution coefficient (D.C.) ([3]; 85% aqueous ethanol): 2.06 | Selectivity (Sel.) ([3]; 85% aqueous ethanol): 2.78 | Distribution coefficient (D.C.) ([3]; 87% aqueous ethanol): 1.28 | Selectivity (Sel.) ([3]; 87% aqueous ethanol): 2.01 | Distribution coefficient (D.C.) ([3]; 90% aqueous ethanol): 1.08 | Selectivity (Sel.) ([3]; 90% aqueous ethanol): 1.42

From patent publication EP0248954B1, “Process for reducing the amount of DDT-related impurities in 1,1-bis(chlorophenyl)-2,2,2-trichloro-ethanol” (ROHM AND HAAS COMPANY, priority 1986, dated 1987)
